“And” between values parts separate entries of the source, which are not always exact repeats. Identical values can stand only once. Where a SMILES comes first, the peptide text is derived from it. [ ]: non-standard residue; d: D form. The star is where a group is joined. Benzoyl(4-SO2NH2) = NS(=O)(=O)c1ccc(C(=O)*)cc1; Phe(4-Cl) = N[C@@H](Cc1ccc(Cl)cc1)C(=O)O; Nle = CCCC[C@H](N)C(=O)O
Target: T1, Carbonic anhydrase 2 (Homo sapiens, UniProt P00918)
Assay: Dissociation constant against human carbonic anhydrase II at 37 degree Centigrade

Compound	Kd
CC(NC(=O)c1ccc(S(N)(=O)=O)cc1)C(=O)O (centres undefined)	120 nM
COc1ccc(CC(NC(=O)c2ccc(S(N)(=O)=O)cc2)C(=O)O)cc1 (centres undefined)	27 nM
N=C(N)NCCC[C@H](NC(=O)CNC(=O)CNC(=O)CNC(=O)c1ccc(S(N)(=O)=O)cc1)C(=O)O	290 nM
NS(=O)(=O)c1ccc(C(=O)NCC(=O)NCC(=O)NCC(=O)N[C@@H](Cc2ccc3ccccc3c2)C(=O)O)cc1	160 nM
NS(=O)(=O)c1ccc(C(=O)NCC(=O)NC(CCC(=O)O)C(=O)O)cc1 (centres undefined)	500 nM
NS(=O)(=O)c1ccc(C(=O)NCC(=O)NCC(=O)NCC(=O)O)cc1	230 nM
CC[C@H](C)[C@H](NC(=O)CNC(=O)CNC(=O)CNC(=O)c1ccc(S(N)(=O)=O)cc1)C(=O)O	230 nM
CCCC[C@H](NC(=O)CNC(=O)CNC(=O)c1ccc(S(N)(=O)=O)cc1)C(=O)O	140 nM
NC(=O)C[C@H](NC(=O)CNC(=O)CNC(=O)c1ccc(S(N)(=O)=O)cc1)C(=O)O	270 nM
COc1ccc(CC(NC(=O)CNC(=O)c2ccc(S(N)(=O)=O)cc2)C(=O)O)cc1 (centres undefined)	170 nM
Nc1ccc(CC(NC(=O)CNC(=O)c2ccc(S(N)(=O)=O)cc2)C(=O)O)cc1 (centres undefined)	330 nM
N=C(N)NCCCC(NC(=O)c1ccc(S(N)(=O)=O)cc1)C(=O)O (centres undefined)	220 nM
NS(=O)(=O)c1ccc(C(=O)NCC(=O)NCC(=O)O)cc1	290 nM
NC(=O)CC[C@H](NC(=O)CNC(=O)CNC(=O)c1ccc(S(N)(=O)=O)cc1)C(=O)O	270 nM
CSCCC(NC(=O)CNC(=O)c1ccc(S(N)(=O)=O)cc1)C(=O)O (centres undefined)	160 nM
CC(C)[C@H](NC(=O)CNC(=O)CNC(=O)CNC(=O)c1ccc(S(N)(=O)=O)cc1)C(=O)O	290 nM
NC(=O)CC[C@H](NC(=O)CNC(=O)CNC(=O)CNC(=O)c1ccc(S(N)(=O)=O)cc1)C(=O)O	280 nM
NS(=O)(=O)c1ccc(C(=O)NCC(=O)NCC(=O)NCC(=O)N[C@@H](Cc2ccc(Cl)cc2)C(=O)O)cc1 ({Benzoyl(4-SO2NH2)}-GGG[Phe(4-Cl)]-OH)	96 nM and 99 nM
NS(=O)(=O)c1ccc(C(=O)NCC(=O)NC(Cc2ccc(Cl)cc2)C(=O)O)cc1 (centres undefined)	100 nM
NS(=O)(=O)c1ccc(C(=O)NCC(=O)NC(Cc2ccccc2)C(=O)O)cc1 (centres undefined)	140 nM
NS(=O)(=O)c1ccc(C(=O)NCC(=O)NC(CC(=O)O)C(=O)O)cc1 (centres undefined)	420 nM
CCC(C)C(NC(=O)c1ccc(S(N)(=O)=O)cc1)C(=O)O (centres undefined)	9 nM
NS(=O)(=O)c1ccc(C(=O)NCC(=O)NCC(=O)N[C@@H](CC(=O)O)C(=O)O)cc1	400 nM

Compound	Kd
NC(=O)CCC(NC(=O)c1ccc(S(N)(=O)=O)cc1)C(=O)O (centres undefined)	140 nM
NS(=O)(=O)c1ccc(C(=O)NCC(=O)NCC(=O)NCC(=O)N2CCC[C@H]2C(=O)O)cc1	330 nM
NC(=O)C[C@H](NC(=O)CNC(=O)CNC(=O)CNC(=O)c1ccc(S(N)(=O)=O)cc1)C(=O)O	290 nM
NS(=O)(=O)c1ccc(C(=O)NCC(=O)NCC(=O)N[C@@H](CCC(=O)O)C(=O)O)cc1	372 nM
NS(=O)(=O)c1ccc(C(=O)NCC(=O)NCC(=O)N[C@@H](CO)C(=O)O)cc1	290 nM
NC(=O)CCC(NC(=O)CNC(=O)c1ccc(S(N)(=O)=O)cc1)C(=O)O (centres undefined)	240 nM
C[C@@H](O)[C@H](NC(=O)CNC(=O)CNC(=O)CNC(=O)c1ccc(S(N)(=O)=O)cc1)C(=O)O	330 nM
CCCCC(NC(=O)c1ccc(S(N)(=O)=O)cc1)C(=O)O (centres undefined)	5 nM
N=C(N)NCCCC(NC(=O)CNC(=O)c1ccc(S(N)(=O)=O)cc1)C(=O)O (centres undefined)	190 nM
NS(=O)(=O)c1ccc(C(=O)NC(Cc2ccccc2)C(=O)O)cc1 (centres undefined)	13 nM
C[C@H](NC(=O)CNC(=O)CNC(=O)c1ccc(S(N)(=O)=O)cc1)C(=O)O	250 nM
NS(=O)(=O)c1ccc(C(=O)NC(CC(=O)O)C(=O)O)cc1 (centres undefined)	1100 nM
NS(=O)(=O)c1ccc(C(=O)NCC(=O)NC(Cc2ccc([N+](=O)[O-])cc2)C(=O)O)cc1 (centres undefined)	150 nM
NC(=O)CC(NC(=O)c1ccc(S(N)(=O)=O)cc1)C(=O)O (centres undefined)	380 nM
Nc1ccc(CC(NC(=O)c2ccc(S(N)(=O)=O)cc2)C(=O)O)cc1 (centres undefined)	64 nM
CC[C@H](C)[C@H](NC(=O)CNC(=O)CNC(=O)c1ccc(S(N)(=O)=O)cc1)C(=O)O	230 nM
CC(C)(C)[C@H](NC(=O)CNC(=O)CNC(=O)c1ccc(S(N)(=O)=O)cc1)C(=O)O	240 nM
NS(=O)(=O)c1ccc(C(=O)NC(CO)C(=O)O)cc1 (centres undefined)	240 nM
NS(=O)(=O)c1ccc(C(=O)NCC(=O)NCC(=O)NC(Cc2ccc3ccccc3c2)C(=O)O)cc1 (centres undefined)	160 nM
CC(C)(C)C(NC(=O)c1ccc(S(N)(=O)=O)cc1)C(=O)O (centres undefined)	9 nM
NS(=O)(=O)c1ccc(C(=O)NCC(=O)N2CCCC2C(=O)O)cc1 (centres undefined)	250 nM
NS(=O)(=O)c1ccc(C(=O)NCC(=O)NCC(=O)NCC(=O)N[C@@H](CCC(=O)O)C(=O)O)cc1	371 nM
NS(=O)(=O)c1ccc(C(=O)NCC(=O)NCC(=O)NCC(=O)N[C@@H](CC(=O)O)C(=O)O)cc1	300 nM

Compound	Kd
NS(=O)(=O)c1ccc(C(=O)N2CCCC2C(=O)O)cc1 (centres undefined)	230 nM
CSCC[C@@H](NC(=O)CNC(=O)CNC(=O)CNC(=O)c1ccc(S(N)(=O)=O)cc1)C(=O)O	220 nM
NS(=O)(=O)c1ccc(C(=O)NCC(=O)NCC(=O)N[C@@H](Cc2ccc(Cl)cc2)C(=O)O)cc1	94 nM
NS(=O)(=O)c1ccc(C(=O)NC(Cc2ccc([N+](=O)[O-])cc2)C(=O)O)cc1 (centres undefined)	22 nM
C[C@H](NC(=O)CNC(=O)CNC(=O)CNC(=O)c1ccc(S(N)(=O)=O)cc1)C(=O)O	300 nM
CC(C)C(NC(=O)c1ccc(S(N)(=O)=O)cc1)C(=O)O (centres undefined)	15 nM
CCCC[C@H](NC(=O)CNC(=O)CNC(=O)CNC(=O)c1ccc(S(N)(=O)=O)cc1)C(=O)O ({Benzoyl(4-SO2NH2)}-GGG[Nle]-OH)	190 nM and 220 nM
NS(=O)(=O)c1ccc(C(=O)NC(Cc2ccc(Cl)cc2)C(=O)O)cc1 (centres undefined)	15 nM and 14 nM
CC(C)(C)[C@H](NC(=O)CNC(=O)CNC(=O)CNC(=O)c1ccc(S(N)(=O)=O)cc1)C(=O)O	210 nM
CSCCC(NC(=O)c1ccc(S(N)(=O)=O)cc1)C(=O)O (centres undefined)	10 nM
NS(=O)(=O)c1ccc(C(=O)NCC(=O)NC(Cc2ccc3ccccc3c2)C(=O)O)cc1 (centres undefined)	130 nM
CC(C)CC(NC(=O)c1ccc(S(N)(=O)=O)cc1)C(=O)O (centres undefined)	9 nM
NS(=O)(=O)c1ccc(C(=O)NCC(=O)NCC(=O)N[C@@H](Cc2ccccc2)C(=O)O)cc1	140 nM
COc1ccc(C[C@H](NC(=O)CNC(=O)CNC(=O)CNC(=O)c2ccc(S(N)(=O)=O)cc2)C(=O)O)cc1	170 nM
CSCC[C@@H](NC(=O)CNC(=O)CNC(=O)c1ccc(S(N)(=O)=O)cc1)C(=O)O	160 nM
CC(C)(C)C(NC(=O)CNC(=O)c1ccc(S(N)(=O)=O)cc1)C(=O)O (centres undefined)	150 nM
NS(=O)(=O)c1ccc(C(=O)NCC(=O)NC(Cc2ccc(F)cc2)C(=O)O)cc1 (centres undefined)	130 nM
NS(=O)(=O)c1ccc(C(=O)NCC(=O)NCC(=O)N[C@@H](Cc2ccc(F)cc2)C(=O)O)cc1	120 nM
NC(=O)CC(NC(=O)CNC(=O)c1ccc(S(N)(=O)=O)cc1)C(=O)O (centres undefined)	290 nM
NS(=O)(=O)c1ccc(C(=O)NCC(=O)NC(CO)C(=O)O)cc1 (centres undefined)	280 nM
N=C(N)NCCC[C@H](NC(=O)CNC(=O)CNC(=O)c1ccc(S(N)(=O)=O)cc1)C(=O)O	300 nM
NS(=O)(=O)c1ccc(C(=O)NCC(=O)NCC(=O)NCC(=O)N[C@@H](Cc2ccc(F)cc2)C(=O)O)cc1	140 nM
Nc1ccc(C[C@H](NC(=O)CNC(=O)CNC(=O)CNC(=O)c2ccc(S(N)(=O)=O)cc2)C(=O)O)cc1	190 nM

Compound	Kd
NS(=O)(=O)c1ccc(C(=O)NCC(=O)NCC(=O)NCC(=O)NCC(=O)O)cc1 ({Benzoyl(4-SO2NH2)}-GGGG-OH)	390 nM and 360 nM
NS(=O)(=O)c1ccc(C(=O)NC(Cc2ccc(F)cc2)C(=O)O)cc1 (centres undefined)	17 nM
NS(=O)(=O)c1ccc(C(=O)NCC(=O)NCC(=O)NCC(=O)N[C@@H](CO)C(=O)O)cc1	360 nM
NS(=O)(=O)c1ccc(C(=O)NCC(=O)NCC(=O)NCC(=O)N[C@@H](Cc2ccc([N+](=O)[O-])cc2)C(=O)O)cc1	160 nM
CC(O)C(NC(=O)c1ccc(S(N)(=O)=O)cc1)C(=O)O (centres undefined)	53 nM
NS(=O)(=O)c1ccc(C(=O)NCC(=O)NCC(=O)NCC(=O)N[C@@H](Cc2ccccc2)C(=O)O)cc1	200 nM
CC(C)C(NC(=O)CNC(=O)c1ccc(S(N)(=O)=O)cc1)C(=O)O (centres undefined)	140 nM
CC(C)CC(NC(=O)CNC(=O)c1ccc(S(N)(=O)=O)cc1)C(=O)O (centres undefined)	130 nM
NS(=O)(=O)c1ccc(C(=O)NC(CCC(=O)O)C(=O)O)cc1 (centres undefined)	530 nM
C[C@@H](O)[C@H](NC(=O)CNC(=O)CNC(=O)c1ccc(S(N)(=O)=O)cc1)C(=O)O	330 nM
CCC(C)C(NC(=O)CNC(=O)c1ccc(S(N)(=O)=O)cc1)C(=O)O (centres undefined)	160 nM
CC(C)C[C@H](NC(=O)CNC(=O)CNC(=O)c1ccc(S(N)(=O)=O)cc1)C(=O)O	210 nM
CC(C)[C@H](NC(=O)CNC(=O)CNC(=O)c1ccc(S(N)(=O)=O)cc1)C(=O)O	260 nM
COc1ccc(C[C@H](NC(=O)CNC(=O)CNC(=O)c2ccc(S(N)(=O)=O)cc2)C(=O)O)cc1	170 nM
NS(=O)(=O)c1ccc(C(=O)NC(Cc2ccc3ccccc3c2)C(=O)O)cc1 (centres undefined)	17 nM
C[C@H](NC(=O)CNC(=O)c1ccc(S(N)(=O)=O)cc1)C(=O)O	170 nM
CCCCC(NC(=O)CNC(=O)c1ccc(S(N)(=O)=O)cc1)C(=O)O (centres undefined)	140 nM
Nc1ccc(C[C@H](NC(=O)CNC(=O)CNC(=O)c2ccc(S(N)(=O)=O)cc2)C(=O)O)cc1	210 nM
CC(C)C[C@H](NC(=O)CNC(=O)CNC(=O)CNC(=O)c1ccc(S(N)(=O)=O)cc1)C(=O)O	210 nM
CC(O)C(NC(=O)CNC(=O)c1ccc(S(N)(=O)=O)cc1)C(=O)O (centres undefined)	320 nM
NS(=O)(=O)c1ccc(C(=O)NCC(=O)NCC(=O)N2CCC[C@H]2C(=O)O)cc1	340 nM
NS(=O)(=O)c1ccc(C(=O)NCC(=O)NCC(=O)N[C@@H](Cc2ccc([N+](=O)[O-])cc2)C(=O)O)cc1	130 nM

Target: T1, Carbonic anhydrase 2
Description: Kinetic constant for binding human carbonic anhydrase II

Compound	k off
NS(=O)(=O)c1ccc(C(=O)NCC(=O)NCC(=O)NCC(=O)N[C@@H](Cc2ccc(Cl)cc2)C(=O)O)cc1 ({Benzoyl(4-SO2NH2)}-GGG[Phe(4-Cl)]-OH)	0.084 s⁻¹
CCCCC(NC(=O)c1ccc(S(N)(=O)=O)cc1)C(=O)O (centres undefined)	0.011 s⁻¹
CCCC[C@H](NC(=O)CNC(=O)CNC(=O)CNC(=O)c1ccc(S(N)(=O)=O)cc1)C(=O)O ({Benzoyl(4-SO2NH2)}-GGG[Nle]-OH)	0.093 s⁻¹
NS(=O)(=O)c1ccc(C(=O)NC(Cc2ccc(Cl)cc2)C(=O)O)cc1 (centres undefined)	0.022 s⁻¹
NS(=O)(=O)c1ccc(C(=O)NCC(=O)NCC(=O)NCC(=O)NCC(=O)O)cc1 ({Benzoyl(4-SO2NH2)}-GGGG-OH)	0.09 s⁻¹

Target: T1, Carbonic anhydrase 2
Remark: another data set of the same source
Description: Kinetic constant for binding human carbonic anhydrase II (Kon=Kd x Koff)

Compound	k on
NS(=O)(=O)c1ccc(C(=O)NCC(=O)NCC(=O)NCC(=O)N[C@@H](Cc2ccc(Cl)cc2)C(=O)O)cc1 ({Benzoyl(4-SO2NH2)}-GGG[Phe(4-Cl)]-OH)	850000 M⁻¹ s⁻¹
CCCC[C@H](NC(=O)CNC(=O)CNC(=O)CNC(=O)c1ccc(S(N)(=O)=O)cc1)C(=O)O ({Benzoyl(4-SO2NH2)}-GGG[Nle]-OH)	420000 M⁻¹ s⁻¹
NS(=O)(=O)c1ccc(C(=O)NCC(=O)NCC(=O)NCC(=O)NCC(=O)O)cc1 ({Benzoyl(4-SO2NH2)}-GGGG-OH)	250000 M⁻¹ s⁻¹

Reference: ChEMBL document CHEMBL1128987, “Benzenesulfonamide-peptide conjugates as probes for secondary binding sites near the active site of carbonic anhydrase” (Bioorg Med Chem Lett, 1996)
